Experiment [1] in a line: Inhibition of CD95 (unknown origin)/PLCgamma-1 SH3 domain (unknown origin) protein-protein interaction transfected in HEK293T cells incubated for 1 hr by renilla luciferase based protein-fragment complementation assay. In kind it is cell-based, Homo sapiens.
Experiment [2] can be described thus: Inhibition of CD95 (unknown origin)/FADD (unknown origin) protein-protein interaction transfected in HEK293T cells incubated for 1 hr by renilla luciferase based protein-fragment complementation assay. It is filed as cell-based, Homo sapiens.
For experiment [3], the species on record is Homo sapiens. The experiment is described as follows: Selectivity index, ratio of IC50 for CD95 (unknown origin)/FADD (unknown origin) protein-protein interaction transfected in HEK293T cells to IC50 for CD95 (unknown origin)/PLCgamma-1 SH3 domain (unknown origin) protein-protein interaction transfected in HEK293T cells. In kind it is cell-based.
The species entered for experiment [4] is Homo sapiens. The experiment is described as follows: Inhibition of CD95 (unknown origin)/PLCgamma-1 SH3 domain Q805A mutant (unknown origin) protein-protein interaction transfected in HEK293T cells incubated for 1 hr by renilla luciferase based protein-fragment complementation assay. In kind it is cell-based.
The species entered for experiment [5] is Homo sapiens. Nature of the experiment: Inhibition of CD95 (unknown origin)/PLCgamma-1 SH3 domain D808A mutant (unknown origin) protein-protein interaction transfected in HEK293T cells incubated for 1 hr by renilla luciferase based protein-fragment complementation assay. It is filed as cell-based.

pIC50: −log10 of the molar value. Active and inactive are the calls of the source. The calls are words filed in the database; no cut-off is given here.

The term pIC50 denotes the negative decadic logarithm of the IC50, by convention in mol/L. As for H-TCRKHRK-OH, the pIC50 in experiment [1] is 4.46; in experiment [2], < 2.30. Moreover, the Ratio IC50 in the experiment filed under Homo sapiens [3] was > 100.
`C[C@@H](O)[C@H](N)C(=O)NCCN(C(=O)CCS)[C@@H](CCCNC(=N)N)C(=O)NCCN(C(=O)CCCCCN)[C@@H](Cc1c[nH]cn1)C(=O)NCCN(C(=O)CCCCNC(=N)N)[C@@H](CCCCN)C(N)=O`: the pIC50 in experiment [1] is 4.11; in experiment [2], < 2.30. In addition, in the experiment filed under Homo sapiens [3], the Ratio IC50 is > 100. The inhibition entry in the experiment listed under Homo sapiens [4] and in the experiment listed under Homo sapiens [5] was “inactive” in each case.
Turning to `N=C(N)NCCC[C@@H](C(=O)NCCN(C(=O)CCCCCN)[C@@H](Cc1c[nH]cn1)C(=O)NCCN(C(=O)CCc1ccc(N)cc1)[C@@H](CCCCN)C(N)=O)N(CCN)C(=O)CCS`, the pIC50 in experiment [1] is 3.07; in experiment [2] it was < 2.30. For the same compound, in the experiment filed under Homo sapiens [3], the Ratio IC50 is > 10.
Regarding `N=C(N)NCCCCC(=O)N(CCNC(=O)[C@H](Cc1c[nH]cn1)N(CCNC(=O)[C@H](CCCNC(=N)N)N(CCN)C(=O)CCS)C(=O)CCCCCN)[C@@H](CCCCN)C(N)=O`, the pIC50 in experiment [1] was 4.12; in experiment [2], 2.42. Also, the Ratio IC50 in the experiment listed under Homo sapiens [3] stood at 50.
Regarding `N=C(N)NCCCCC(=O)N(CCNC(=O)[C@H](Cc1c[nH]cn1)N(CCNC(=O)[C@H](Cc1cccnc1)N(CCN)C(=O)CCS)C(=O)CCCCCN)[C@@H](CCCCN)C(N)=O`, the negative logarithm of the IC50 (pIC50) in experiment [1] is 3.04; in experiment [2], 2.37. In the experiment filed under Homo sapiens [3], the Ratio IC50 came out at 4.
For `N=C(N)NCCCCC(=O)N(CCNC(=O)[C@H](Cc1c[nH]cn1)N(CCNC(=O)[C@H](Cc1c[nH]c2ccccc12)N(CCN)C(=O)CCS)C(=O)CCCCCN)[C@@H](CCCCN)C(N)=O`, the pIC50 in experiment [1] is 4.07; in experiment [2] it was 3.76. Besides, the Ratio IC50 in the experiment listed under Homo sapiens [3] amounted to 2.
Turning to `N=C(N)NCCC[C@@H](C(=O)NCCN(C(=O)CCCCCN)[C@@H](Cc1c[nH]cn1)C(=O)NCCN(C(=O)CCCCCC(N)=O)[C@@H](CCCCN)C(N)=O)N(CCN)C(=O)CCS`, the pIC50 in experiment [1] and in experiment [2] was < 2.30 in each case.
For the compound `CCC(=O)N(CCN)[C@@H](CCCNC(=N)N)C(=O)NCCN(C(=O)CCCCCN)[C@@H](Cc1c[nH]cn1)C(=O)NCCN(C(=O)CCCCNC(=N)N)[C@@H](CCCCN)C(N)=O`, the values for the pIC50 in experiment [1] and in experiment [2] were 4.21 and < 2.30, respectively. Besides, the Ratio IC50 in the experiment filed under Homo sapiens [3] was > 100.
With `N=C(N)NCCC[C@@H](C(=O)NCCN(C(=O)CCCCCN)[C@@H](Cc1c[nH]cn1)C(=O)NCCN(C(=O)CCc1ccc(O)cc1)[C@@H](CCCCN)C(N)=O)N(CCN)C(=O)CCS`, the values for the negative-log IC50 (pIC50) in experiment [1] and in experiment [2] were 3.18 and < 2.30, respectively. For the same compound, in the experiment filed under Homo sapiens [3], the Ratio IC50 is > 10.
`N=C(N)NCCC[C@@H](C(=O)NCCN(C(=O)CCCCCN)[C@@H](Cc1c[nH]cn1)C(=O)NCCN(C(=O)CCc1c[nH]c2ccccc12)[C@@H](CCCCN)C(N)=O)N(CCN)C(=O)CCS`: the pIC50 is 3.46 in experiment [1] and 2.58 in experiment [2]. In the experiment filed under Homo sapiens [3], the Ratio IC50 was 8.
As to `N=C(N)NCCCCC(=O)N(CCNC(=O)[C@H](Cc1c[nH]cn1)N(CCNC(=O)[C@H](CCCNC(=N)N)N(CCN)C(=O)CCO)C(=O)CCCCCN)[C@@H](CCCCN)C(N)=O`, the pIC50 in experiment [1] is 4.10; in experiment [2] it was 2.41. Moreover, the Ratio IC50 in the experiment filed under Homo sapiens [3] is 50.

The values are drawn from ChEMBL document CHEMBL4364338, “Probing the side chain tolerance for inhibitors of the CD95/PLCγ1 interaction” (Bioorg Med Chem Lett, 2019).
